Test results taken from PMC6748449, “HupA, the main undecaprenyl pyrophosphate and phosphatidylglycerol phosphate phosphatase in Helicobacter pylori is essential for colonization of the stomach” (PLoS Pathogens, 2019).

Legend:
LpxE (HP0021) = LpxE (HP0021) (Helicobacter pylori, UniProt O24866); experiment: phosphate release, malachite green; assay type: biochemical; conditions: 50 uM substrate, 0.2% DDM, pH 7.4, 37 °C
LpxF (HP1580) = target: T1, LpxF (HP1580) (Helicobacter pylori, UniProt O26100); experiment: phosphate release, malachite green; assay type: biochemical; conditions: 50 uM substrate, 0.2% DDM, pH 7.4, 37 °C; very low activity
T1 construct: gene HP_1580
T1 sequence (O26100 entry or part of it): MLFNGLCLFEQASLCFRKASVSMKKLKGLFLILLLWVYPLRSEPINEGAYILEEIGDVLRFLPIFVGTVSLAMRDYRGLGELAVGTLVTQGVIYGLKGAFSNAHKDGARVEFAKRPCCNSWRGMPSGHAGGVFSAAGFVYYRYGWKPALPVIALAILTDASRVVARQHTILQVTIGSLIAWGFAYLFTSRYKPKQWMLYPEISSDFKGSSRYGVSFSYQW

LpxE (HP0021), sequence (O24866 whole entry): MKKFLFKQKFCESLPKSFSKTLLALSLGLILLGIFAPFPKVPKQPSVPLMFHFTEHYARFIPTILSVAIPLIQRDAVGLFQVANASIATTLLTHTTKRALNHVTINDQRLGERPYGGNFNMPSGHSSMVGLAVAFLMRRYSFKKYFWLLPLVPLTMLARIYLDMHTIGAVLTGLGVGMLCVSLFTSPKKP

Compound: CC(C)=CCC/C(C)=C/CC/C(C)=C/COP(=O)(O)OP(=O)(O)O [C15-PP]
- phosphate release, malachite green (LpxE (HP0021)): LpxE had similar substrate specificity as HupA, except for C5-PP
- phosphate release, malachite green (LpxF (HP1580)): LpxF only showed very low activity towards C15-PP and PGP
